# Like-named read-outs stand apart in the source and are kept apart here.
# Legend:
# VDR [1] = conditions: antagonist activity for 1; read-out: Antagonistic Activity IC50; cited from earlier work
# VDR [2] = conditions: literature values, cited from earlier work; for EC50: read-out: Transcriptional Activity EC50
# VDR [3] = conditions: cited from earlier work; for IC50: literature values, read-out: VDR Affinity IC50
# [4] = tested on: CYP24A1 expression in HaCaT cells; parameters: method as in PMID 17325131, PMID 24773565; conditions: cited from earlier work
# [5] = tested on: CYP24A1 expression in intestine-derived HCT116 cells; parameters: method as in PMID 17325131; conditions: cited from earlier work
# hVDR = target: T1, hVDR (Homo sapiens, UniProt P11473); assay: VDR transactivation luciferase reporter assay in HEK293 cells (SPP×3-tk-LUC); type: cell-based; conditions: for Transcriptional activity efficacy: 1,25(OH)2D3 = 100%; for Emax: read-out: Transcriptional Activity % Efficacy of That of 1 (converted)
# T1 construct: expressed in transfected cells; host or cells: HEK293
# T1 sequence (P11473 1-427): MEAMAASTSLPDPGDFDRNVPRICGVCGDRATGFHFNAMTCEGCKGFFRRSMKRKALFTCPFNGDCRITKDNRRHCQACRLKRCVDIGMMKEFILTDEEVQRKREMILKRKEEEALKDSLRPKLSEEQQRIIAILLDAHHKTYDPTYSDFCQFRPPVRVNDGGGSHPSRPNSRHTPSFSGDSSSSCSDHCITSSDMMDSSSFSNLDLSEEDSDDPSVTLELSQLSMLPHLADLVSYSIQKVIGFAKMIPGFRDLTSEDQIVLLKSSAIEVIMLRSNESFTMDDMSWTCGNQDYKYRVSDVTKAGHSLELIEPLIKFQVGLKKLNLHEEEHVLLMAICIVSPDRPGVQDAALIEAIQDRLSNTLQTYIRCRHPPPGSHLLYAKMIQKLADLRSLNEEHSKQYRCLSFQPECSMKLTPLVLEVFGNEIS
# Description: The transcriptional activity of the 25-alkylvitamin D analogs on the VDR was evaluated via a luciferase reporter assay in HEK293 human kidney cells transfected with an hVDR expression vector and a luciferase reporter with mouse osteopontin vitamin D response elements (VDREs, SPP×3-tk-LUC).
# Transfections of 50 ng of TK-Spp × 3-LUC reporter plasmid, 10 ng of pCMX-β-galactosidase, and 15 ng of pCMX-VDR for each well of a 96-well plate were performed in HEK293 cells using the calcium phosphate coprecipitation method, as described previously. The mammalian two-hybrid assay for cofactor interaction with VDR used 50 ng of TK-MH100(UAS) × 3- LUC reporter plasmid, 10 ng of pCMX-β-galactosidase, 15 ng of pCMX-GAL4-RXRα, pCMX-GAL4-SRC1, or pCMX-GAL4-NCoR, and 15 ng of pCMX-VP16-VDR for each well of a 96-well plate. Luciferase and β-galactosidase activities were measured with a luminometer and a microplate reader (Molecular Devices, Sun Jose, CA, USA), respectively. Luciferase values were normalized to the internal β-galactosidase control.
# HEK293 cells were co-transfected with TK-Spp × 3-LUC reporter plasmid and pCMX−VDR, and 8 h after transfection the cells were treated with several concentrations of each compound. After 24 h, the cells were harvested for assaying luciferase and β-galactosidase activity using a luminometer (Molecular Devices, Sunnyvale, CA, USA).
# [6] = tested on: CYP24A1 expression in all cells (HEK293, SW480, U937, HaCaT, MG63, H292); assay: CYP24A1 expression (RT-qPCR), all cells tested; conditions: 100 nM, 24 h
# Description: HEK293 human kidney cells (RIKEN Cell Bank, Tsukuba, Japan) were cultured in Dulbecco’s modified Eagle’s medium (DMEM) (Fujifilm Wako Pure Chemical Corporation, Tokyo, Japan) containing 5% fetal bovine serum (FBS), 100 U/mL penicillin, and 0.1 mg/mL streptomycin (Nacalai Tesque, Kyoto, Japan). SW480 human colon carcinoma cells (American Type Culture Collection, Manassas, VA) and HaCaT immortalized keratinocyte cells (kindly provided by Dr. Tadashi Terui, Department of Dermatology, Nihon University School of Medicine) were cultured in DMEM containing 10% FBS, 100 U/mL penicillin, and 0.1 mg/mL streptomycin. MG63 human osteosarcoma cells (RIKEN Cell Bank) and lung-derived H292 cells (American Type Culture Collection) were cultured in minimum essential medium containing 10% FBS, 100 U/mL penicillin, and 0.1 mg/mL streptomycin. […] All cells were cultured at 37 °C in a humidified atmosphere containing 5% CO2.
# For gene expression analysis, 1 × 10^4 cells per well were plated in a 24-well plate. After 24 h, the cells were treated with an ethanol control or 100 nM of each test compound for 24 h. […] Real-time PCR was performed on the ABI PRISM 7000 sequence detection system (Thermo Fisher Scientific, Waltham, MA, USA) using Power SYBR Green PCR master mix (Thermo Fisher Scientific).
# [7] = tested on: human dedifferentiated fat (DFAT) cells; assay: Osteogenic differentiation assay: ALP activity in human DFAT cells; type: cell-based; conditions: osteogenic medium, 100 nM, 7 days, natural hormone 1 = 100%
# Description: Mature adipocytes from the adipose tissue of mammals such as humans and rodents can be dedifferentiated into pluripotent cells using ceiling culture. Dedifferentiated fat (DFAT) cells have potential applications in both regenerative medicine and injury healing, as well as mesenchymal stem cells, embryonic stem cells, and induced pluripotent stem cells. The osteogenic activity of vitamin D derivatives was assessed based on alkaline phosphatase (ALP) activity.
# Samples of human subcutaneous adipose tissue were obtained from patients who underwent surgery in the Department of Pediatric Surgery at Nihon University Itabashi Hospital (Tokyo, Japan). The patients gave their written informed consent, and the Ethics Committee of Nihon University School of Medicine approved this study. We prepared dedifferentiated fat (DFAT) cells using the ceiling culture method, as described previously. Briefly, the adipose tissue (approximately 1 g) was cut into small pieces and digested with a 0.1% type I collagenase solution (Koken Co., Ltd., Tokyo, Japan). […] The cells that adhered to the upper surface of the flasks were cultured for conversion to dedifferentiated fat cells. […] Cells at passages 2–4 were used for differentiation experiments.
# Cells were grown to confluency in 24-well plates and incubated for a week in DMEM containing 10% FBS, 100 nM dexamethasone (Merk), 10 mM β-glycerophosphate (Merk), and […] L-ascorbic acid-2-phosphate (Merk), with 100 nM of each compound. The induction medium was replaced on day 4. The alkaline phosphatase (ALP) activity in the cell lysates was determined on day 7 with a lab assay ALP kit (Fujifilm wako). The total protein content was determined with the BCA protein assay kit (Thermo Fisher Scientific). ALP levels were normalized to the total protein content.
# recombinant hVDR-LBD [8] = target: T2, recombinant hVDR-LBD (Homo sapiens, UniProt P11473); assay: biochemical
# T2 sequence (P11473 140-427): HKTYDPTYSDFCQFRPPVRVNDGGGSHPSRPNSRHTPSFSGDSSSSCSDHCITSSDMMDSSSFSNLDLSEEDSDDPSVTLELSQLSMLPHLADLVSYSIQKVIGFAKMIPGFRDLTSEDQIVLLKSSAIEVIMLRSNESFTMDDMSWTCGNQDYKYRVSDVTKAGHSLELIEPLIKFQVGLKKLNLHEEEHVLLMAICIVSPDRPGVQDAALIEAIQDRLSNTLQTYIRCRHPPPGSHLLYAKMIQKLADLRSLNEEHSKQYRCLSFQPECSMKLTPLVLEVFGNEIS
# Description: (§1) The pGEX-hVDR and pGEX were expressed for a GST-VDR fusion protein and a control GST protein, respectively, in Escherichia coli BL21 (Merck, Darmstadt, Germany). The bacteria were lysed by sonication in a sonication buffer (50 mM Tris-HCl, pH 8.0, 50 mM NaCl, 1 mM EDTA, and 1 mM DTT). The supernatant proteins (1 μg) were diluted in a binding buffer (25 mM Tris, pH 7.5, 100 mM KCl, 25 mM DTT, 4 mM CHAPS, pH 7.5) containing bovine serum albumin (100 μg/mL). A solution containing each test compound in 15 μL of EtOH was added to 570 μL of the GST protein solution in each tube. After being vortexed 2–3 times, the mixture was incubated for 30 min at room temperature. […] After being vortexed 2–3 times, the whole mixture was allowed to stand at 4 °C for 20 h, and 400 μL of dextran-coated charcoal solution (Sigma) was added to remove free ligands.
# (§2) All values represent the means, and error bars are the standard deviations derived from triplicate assays.
# VDR with RXRα = target: T3, VDR with RXRα (Homo sapiens, UniProt P11473); assay: Mammalian two-hybrid assay, interaction of the VDR with RXRα
# T3 sequence (P11473 1-427): T1 sequence (P11473 1-427)
# T3 sequence (P19793 1-462 partner): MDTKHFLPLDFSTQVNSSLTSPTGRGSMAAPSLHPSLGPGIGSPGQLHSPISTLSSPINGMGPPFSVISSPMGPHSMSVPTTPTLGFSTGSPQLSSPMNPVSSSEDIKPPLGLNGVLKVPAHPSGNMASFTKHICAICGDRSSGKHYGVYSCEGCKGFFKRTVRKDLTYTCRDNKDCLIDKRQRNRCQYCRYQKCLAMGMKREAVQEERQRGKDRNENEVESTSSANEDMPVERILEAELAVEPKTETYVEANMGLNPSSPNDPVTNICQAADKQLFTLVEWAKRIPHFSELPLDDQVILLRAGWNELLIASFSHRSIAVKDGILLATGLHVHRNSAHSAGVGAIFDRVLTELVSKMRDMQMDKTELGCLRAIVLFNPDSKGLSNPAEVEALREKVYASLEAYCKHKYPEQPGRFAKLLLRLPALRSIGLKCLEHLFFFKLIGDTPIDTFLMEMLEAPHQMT
# Description: (§3) We used the expression plasmids pCMX-VDR, pCMX-VP16- VDR, pCMX-GAL4-RXRα, pCMX-GAL4-SRC-1, and pCMX-GAL4- N-CoR, as reported previously [43]. […] We used luciferase reporters: VDR-responsive Sppx3-tk-LUC and GAL4-responsive MH100(UAS) × 4-tk-LUC reporters [43].
# (§4) Transfections of 50 ng of TK-Spp × 3-LUC reporter plasmid, 10 ng of pCMX-β-galactosidase, and 15 ng of pCMX-VDR for each well of a 96-well plate were performed in HEK293 cells using the calcium phosphate coprecipitation method, as described previously [43]. The mammalian two-hybrid assay for cofactor interaction with VDR used 50 ng of TK-MH100(UAS) × 3- LUC reporter plasmid, 10 ng of pCMX-β-galactosidase, 15 ng of pCMX-GAL4-RXRα, pCMX-GAL4-SRC1, or pCMX-GAL4-NCoR, and 15 ng of pCMX-VP16-VDR for each well of a 96-well plate. Luciferase and β-galactosidase activities were measured with a luminometer and a microplate reader (Molecular Devices, Sun Jose, CA, USA), respectively. Luciferase values were normalized to the internal β-galactosidase control.
# (§5) (B) Effects on the interactions between the VDR and SRC-1. HEK293 cells were co-transfected with CMX-GAL4-SRC-1, CMX-VP16-VDR, and MH100 (UAS) × 4-tk-LUC and were treated with each compound over a range of concentrations. (C) Effects on interactions of the VDR with NCoR-1. HEK293 cells were co-transfected with CMX-GAL4-N-CoR in combination with CMX-VP16-VDR and MH100 (UAS) × 4-tk-LUC and were treated with each compound over a range of concentrations.
# recombinant hVDR-LBD [9] = target: T2, recombinant hVDR-LBD; conditions: for fold lower activity of rapidly eluting epimer than the other 25-epimer: affinity for human VDR, within each 25-epimer pair; for VDR affinity, % of that of 1,25(OH)2D3: relative to 1,25(OH)2D3
# Description: as §1, §2
# VDR with SRC-1 = target: T4, VDR with SRC-1 (Homo sapiens, UniProt P11473); assay: Mammalian two-hybrid assay, VDR binding to SRC-1
# T4 sequence (P11473 1-427): T1 sequence (P11473 1-427)
# T4 sequence (Q15788 595-771 partner limits assumed): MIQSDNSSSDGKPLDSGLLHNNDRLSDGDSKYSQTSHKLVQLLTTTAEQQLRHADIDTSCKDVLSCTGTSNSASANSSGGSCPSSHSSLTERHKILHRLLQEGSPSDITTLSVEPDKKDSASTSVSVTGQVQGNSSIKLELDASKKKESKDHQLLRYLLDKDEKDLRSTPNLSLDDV
# Description: as §3, §4, §5
# VDR with NCoR = target: T5, VDR with NCoR (Homo sapiens, UniProt P11473); assay: Mammalian two-hybrid assay, dissociation of NCoR from the VDR
# T5 sequence (P11473 1-427): T1 sequence (P11473 1-427)
# Description: as §3, §4, §5
# VDR [10] = assay: VDR affinity, previously reported; type: binding
# [11] = parameters: method as in PMID 26613420; conditions: versus natural hormone 1; cited from earlier work
# HL-60 cell = tested on: HL-60 cell; parameters: method as in PMID 6572492; conditions: cited from earlier work
# [12] = read-out: Transcriptional activity EC50
# [13] = this study, read-out: Transcriptional Activity EC50
Transcriptional activity efficacy (hVDR) [%],EC50 (hVDR; [12]) [nM],Emax (hVDR; this study) [%],EC50 (hVDR; [13]) [nM],IC50 (recombinant hVDR-LBD [8]) [nM],EC50 (VDR with RXRα) [nM],fold lower activity of rapidly eluting epimer than the other 25-epimer (recombinant hVDR-LBD [9]),"VDR affinity, % of that of 1,25(OH)2D3 (recombinant hVDR-LBD [9]) [%]",EC50 (VDR with SRC-1) [nM],IC50 (VDR with NCoR) [nM],Compound,Transcriptional Activity % Efficacy of That of 1 (VDR [2]) [%],EC50 (VDR [2]) [nM],IC50 (VDR [3]) [nM],CYP24A1 expression activity in all cells [6],ALP activity [7] [%],further results
–,–,–,–,–,–,–,–,–,–,C[C@H](/C=C/C[C@H](O)C12CC3CC(CC(C3)C1)C2)[C@H]1CC[C@H]2/C(=C/C=C3C[C@@H](O)C[C@H](O)C3)CCC[C@]12C [AD47],17,300,5,–,–,IC50 (VDR [1]): 400 nM; CYP24A1 expression compared to 1 [4]: 50%; CYP24A1 expression compared to 1 [5]: 75%
90,2.33,90,2.3,6.7,1.1,5–11 fold,6,10.2,6.3,"C=C1[C@H](O)CC(=C/C=C2\CCC[C@]3(C)[C@@H]([C@H](C)CC#C[C@@](O)(CC)C45CC6CC(CC(C6)C4)C5)CC[C@@H]23)C[C@H]1O [ADKM3, (25R)-25-(1-Adamantyl)-1a,25-dihydroxy-26-methyl-2-methylidene-23-yne-19,27-dinorvitamin D3]",–,–,–,10-50%,40.4,–
78,0.53,78,0.5,6.2,1.1,5–11 fold,6,8.4,2.3,"C=C1[C@H](O)CC(=C/C=C2\CCC[C@]3(C)[C@@H]([C@H](C)CC#C[C@](C)(O)C45CC6CC(CC(C6)C4)C5)CC[C@@H]23)C[C@H]1O [ADKM1, (25R)-25-(1-Adamantyl)-1α,25-dihydroxy-2-methylidene-23-yne-19,27-dinorvitamin D3]",–,–,–,10-50%,41,–
–,–,–,–,–,–,–,–,–,–,C=C1[C@H](O)CC(=C/C=C2\CCC[C@]3(C)[C@@H]([C@H](C)/C=C/C[C@H](O)C45CC6CC(CC(C6)C4)C5)CC[C@@H]23)C[C@H]1O [ADNY93],17,1,0.1,–,–,"IC50 (VDR [1]): 1.2 nM; VDR affinity, times that of AD47 (2) (VDR [10]; effect of exocyclic methylene at C-2, values of Table 1): 50 times"
83,2.63,83,2.6,23.4,5.2,5–11 fold,2,2.4,8.5,"C=C1[C@H](O)CC(=C/C=C2\CCC[C@]3(C)[C@@H]([C@H](C)CC#C[C@@](O)(CCCC)C45CC6CC(CC(C6)C4)C5)CC[C@@H]23)C[C@H]1O [ADKM5, (25R)-25-(1-Adamantyl)-1α,25-dihydroxy-2-methylidene-26-propyl-23-yne-19,27-dinorvitamin D3]",–,–,–,10-50%,19,–
–,–,–,–,–,–,–,–,–,–,C=C1[C@H](O)CC(=C/C=C2\CCC[C@]3(C)[C@@H]([C@H](C)CC#C[C@H](O)C45CC6CC(CC(C6)C4)C5)CC[C@@H]23)C[C@H]1O [ADTK2],> 38,6.6,12,–,–,"times less potent than 5b (25S) (VDR [10]; 25R versus 25S epimer, values of ref 42): 24 times"
–,–,–,–,–,–,–,–,–,–,C=C1[C@H](O)CC(=C/C=C2\CCC[C@]3(C)[C@@H](C#CC#C[C@@H](O)C45CC6CC(CC(C6)C4)C5)CC[C@@H]23)C[C@H]1O [ADYW2],86,1.5,5,–,–,stability in MG63 cells [11]: more stable than natural hormone 1
–,–,–,–,–,–,–,–,–,–,"C=C1/C(=C\C=C2/CCC[C@]3(C)[C@@H]([C@H](C)CCC(F)(F)C(C)(C)O)CC[C@@H]23)C[C@H](O)C[C@H]1O [24F2-1,25(OH)2D3, 24, 24-difluoro-1α, 25-dihydroxyvitamin D3]",–,–,–,–,–,activity in HL-60 cell differentiation versus natural metabolite (1) (HL-60 cell): four to seven times more activity than natural metabolite (1)
–,–,–,–,–,–,–,–,–,–,C=C1[C@H](O)CC(=C/C=C2\CCC[C@]3(C)[C@@H]([C@H](C)CC#C[C@@H](O)C45CC6CC(CC(C6)C4)C5)CC[C@@H]23)C[C@H]1O [ADTK1],81,–,0.5,–,45.6,"VDR affinity, % of that of 1 (VDR [3]; relative to 1,25(OH)2D3 (1)): 90%; CYP24A1 expression compared to 1 [4]: less than 50%"

# Source: article PMC10377034, “Syntheses of 25-Adamantyl-25-alkyl-2-methylidene-1α,25-dihydroxyvitamin D3 Derivatives with Structure–Function Studies of Antagonistic and Agonistic Active Vitamin D Analogs” (Biomolecules, 2023)
